In the supplement of paper PMC11061612:

How the values were obtained:
Experiment in all cases: combination Emax (second highest fraction inhibited in the dose matrix, 72 h); higher = more inhibition; extreme values may be limits of the assay
[1] = tested on: A2780 (Ovarian Carcinoma)
Procedure, shortened: (§1)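 Cell lines grown in DMEM/F12 or RPMI with 10% FBS were plated in 1536-well plates and held 24 hours at 37°C, 5% CO2 before 72 hours of exposure to two-drug dose matrices, with DMSO typically at 0.2%. CellTiter-Glo 2.0 luminescence gave viability, which was converted to inhibition. Vehicle wells were set to 0 and blank wells to 1. Combination Emax is the second-highest inhibition in the matrix, and Bliss excess is the observed combination effect minus the expected EA + EB − EA·EB, where EA and EB are the single-agent effects.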

[2] = tested on: NCI-H716 (Colorectal Carcinoma)
Procedure, shortened: as §1

[3] = tested on: NCI-H1703 (Squamous Cell Lung Carcinoma)
Procedure, shortened: as §1

[4] = tested on: huH-1 (Hepatocellular Carcinoma)
Procedure, shortened: as §1

[5] = tested on: 769-P (Kidney Carcinoma)
Procedure, shortened: as §1

[6] = tested on: UACC-812 (Breast Carcinoma)
Procedure, shortened: as §1

[7] = tested on: G-402 (Other Solid Carcinomas)
Procedure, shortened: as §1

[8] = tested on: KYSE-220 (Esophageal Squamous Cell Carcinoma)
Procedure, shortened: as §1

[9] = tested on: CGTH-W-1 (Thyroid Gland Carcinoma)
Procedure, shortened: as §1

[10] = tested on: JVM-2 (B-Cell Non-Hodgkin's Lymphoma)
Procedure, shortened: as §1

[11] = tested on: IM-9 (Non-Cancerous)
Procedure, shortened: as §1

[12] = tested on: OACp4C (Esophageal Adenocarcinoma)
Procedure, shortened: as §1

[13] = tested on: NCI-H441 (Lung Adenocarcinoma)
Procedure, shortened: as §1

[14] = tested on: CA46 (Burkitt's Lymphoma)
Procedure, shortened: as §1

[15] = tested on: DU-4475 (Breast Carcinoma)
Procedure, shortened: as §1

[16] = tested on: KYSE-140 (Esophageal Squamous Cell Carcinoma)
Procedure, shortened: as §1

[17] = tested on: SK-HEP-1 (Hepatocellular Carcinoma)
Procedure, shortened: as §1

[18] = tested on: A101D (Melanoma)
Procedure, shortened: as §1

[19] = tested on: JHH-2 (Hepatocellular Carcinoma)
Procedure, shortened: as §1

[20] = tested on: A204 (Rhabdomyosarcoma)
Procedure, shortened: as §1

Structure (SMILES) | combination Emax [1] | combination Emax [2] | combination Emax [3] | combination Emax [4] | combination Emax [5] | combination Emax [6] | combination Emax [7] | combination Emax [8] | combination Emax [9] | combination Emax [10] | combination Emax [11] | combination Emax [12] | combination Emax [13] | combination Emax [14] | combination Emax [15] | combination Emax [16] | combination Emax [17] | combination Emax [18] | combination Emax [19] | combination Emax [20]
CC1(C)CCC(CN2CCN(c3ccc(C(=O)NS(=O)(=O)c4ccc(NCC5CCOCC5)c([N+](=O)[O-])c4)c(Oc4cnc5[nH]ccc5c4)c3)CC2)=C(c2ccc(Cl)cc2)C1 [Venetoclax] + CCN(CCO)CCCOc1ccc2c(Nc3cc(CC(=O)Nc4cccc(F)c4)[nH]n3)ncnc2c1 [AZD2811] (first compound max 1 µM, 7x7, partner max 1 µM) | 0.472 | 0.198 | 0.523 | 0.191 | 0.204 | 0.186 | 0.667 | 0.299 | 0.272 | 0.681 | 0.976 | 0.665 | 0.365 | 0.0318 | 0.404 | 0.367 | 0.27 | 0.477 | 0.27 | 0.368
Cc1c2c(nn1C)CSCc1cc(n(C)n1)CSc1cc(c3ccccc3c1)OCCCc1c(C(=O)O)n(C)c3c-2c(Cl)ccc13 [AZD5991] + C1CN(CCC1(C(=O)N[C@@H](CCO)C2=CC=C(C=C2)Cl)N)C3=NC=NC4=C3C=CN4 [Capivasertib] (first compound max 1 µM, 7x7, partner max 3 µM) | 0.838 | 0.401 | 0.847 | 0.227 | 0.146 | 0.427 | 0.984 | 0.252 | 0.265 | 0.801 | 0.756 | 0.783 | 0.237 | 0.351 | 0.24 | 0.862 | 0.334 | 1 | 0.604 | 0.689
CC1(C)CCC(CN2CCN(c3ccc(C(=O)NS(=O)(=O)c4ccc(NCC5CCOCC5)c([N+](=O)[O-])c4)c(Oc4cnc5[nH]ccc5c4)c3)CC2)=C(c2ccc(Cl)cc2)C1 [Venetoclax] + C[C@@H]1COCCN1C2=NC(=NC(=C2)C3(CC3)[S@](=N)(=O)C)C4=C5C=CNC5=NC=C4 [AZD6738] (first compound max 1 µM, 7x7, partner max 10 µM) | 0.797 | 0.436 | 0.883 | 0.597 | 0.815 | 0.29 | 0.705 | 0.875 | 0.366 | 0.892 | 0.995 | 0.711 | 0.454 | 0.506 | 1 | 0.863 | 0.28 | 0.91 | 0.697 | 0.479
Cc1c2c(nn1C)CSCc1cc(n(C)n1)CSc1cc(c3ccccc3c1)OCCCc1c(C(=O)O)n(C)c3c-2c(Cl)ccc13 [AZD5991] + CCN(CCO)CCCOc1ccc2c(Nc3cc(CC(=O)Nc4cccc(F)c4)[nH]n3)ncnc2c1 [AZD2811] (first compound max 1 µM, 7x7, partner max 1 µM) | 0.802 | 0.349 | 0.874 | 0.387 | 0.328 | 0.508 | 0.946 | 0.308 | 0.521 | 0.772 | 1 | 0.827 | 0.31 | 0.193 | 0.378 | 0.602 | 0.387 | 0.998 | 0.325 | 0.688
CC1(C)CCC(CN2CCN(c3ccc(C(=O)NS(=O)(=O)c4ccc(NCC5CCOCC5)c([N+](=O)[O-])c4)c(Oc4cnc5[nH]ccc5c4)c3)CC2)=C(c2ccc(Cl)cc2)C1 [Venetoclax] + C1CN(CCC1(C(=O)N[C@@H](CCO)C2=CC=C(C=C2)Cl)N)C3=NC=NC4=C3C=CN4 [Capivasertib] (first compound max 1 µM, 7x7, partner max 3 µM) | 0.61 | 0.287 | 0.384 | 0.2 | 0.241 | 0.238 | 0.425 | 0.223 | 0.215 | 0.661 | 0.632 | 0.634 | 0.326 | 0.112 | 0.246 | 0.669 | 0.168 | 0.283 | 0.625 | 0.335
COc1nnc2ccc(N3CCC(c4ccc(OCCN5CCN(C)C(=O)[C@H]5C)cc4)CC3)nn12 [AZD5153] + C[C@@H]1COCCN1C2=NC(=NC(=C2)C3(CC3)[S@](=N)(=O)C)C4=C5C=CNC5=NC=C4 [AZD6738] (first compound max 1 µM, 7x7, partner max 10 µM) | 0.848 | 0.702 | 0.973 | 0.69 | 0.977 | 0.479 | 0.941 | 0.863 | 0.448 | 0.825 | 0.963 | 0.856 | 0.562 | 0.754 | 1 | 0.821 | 0.406 | 0.805 | 0.711 | 0.573
CC(=O)Nc1cccc(-n2c(=O)n(C3CC3)c(=O)c3c(Nc4ccc(I)cc4F)n(C)c(=O)c(C)c32)c1 [Trametinib] + Cc1nc(-c2cn3c(n2)-c2ccc(-c4cnn(C(C)(C)C(N)=O)c4)cc2OCC3)n(C(C)C)n1 [Taselisib] (first compound max 1 µM, 7x7, partner max 10 µM) | 0.972 | 0.977 | 0.759 | 0.688 | 0.681 | 0.461 | 0.792 | 0.958 | 0.99 | 0.746 | 0.941 | 1 | 0.639 | 0.434 | 1 | 0.817 | 0.561 | 0.923 | 1 | 0.816
COc1cccc(OCCCN)c1-c1cc(Nc2cnc(C#N)cn2)n[nH]1 [Prexasertib] + C[C@@H]1COCCN1C2=NC(=NC(=C2)C3(CC3)[S@](=N)(=O)C)C4=C5C=CNC5=NC=C4 [AZD6738] (first compound max 1 µM, 7x7, partner max 10 µM) | 0.825 | 0.616 | 0.97 | 0.762 | 0.837 | 0.542 | 0.605 | 0.939 | 0.711 | 0.949 | 1 | 0.737 | 0.544 | 0.599 | 0.995 | 0.959 | 0.462 | 0.773 | 0.854 | 0.534
COc1nnc2ccc(N3CCC(c4ccc(OCCN5CCN(C)C(=O)[C@H]5C)cc4)CC3)nn12 [AZD5153] + Cn1cnc2c(F)c(Nc3ccc(Br)cc3Cl)c(C(=O)NOCCO)cc21 [Selumetinib] (first compound max 1 µM, 7x7, partner max 10 µM) | 0.823 | 0.879 | 0.626 | 0.438 | 0.659 | 0.331 | 0.797 | 0.808 | 0.356 | 0.702 | 0.952 | 0.945 | 0.453 | 0.633 | 1 | 0.557 | 0.234 | 0.872 | 0.427 | 0.484
Cc1c2c(nn1C)CSCc1cc(n(C)n1)CSc1cc(c3ccccc3c1)OCCCc1c(C(=O)O)n(C)c3c-2c(Cl)ccc13 [AZD5991] + C[C@@H]1COCCN1C2=NC(=NC(=C2)C3(CC3)[S@](=N)(=O)C)C4=C5C=CNC5=NC=C4 [AZD6738] (first compound max 1 µM, 7x7, partner max 10 µM) | 0.922 | 0.574 | 0.961 | 0.623 | 0.797 | 0.674 | 0.995 | 0.877 | 0.389 | 0.912 | 1 | 0.851 | 0.39 | 0.449 | 0.978 | 0.925 | 0.354 | 1 | 0.703 | 0.773
CC1(C)CCC(CN2CCN(c3ccc(C(=O)NS(=O)(=O)c4ccc(NCC5CCOCC5)c([N+](=O)[O-])c4)c(Oc4cnc5[nH]ccc5c4)c3)CC2)=C(c2ccc(Cl)cc2)C1 [Venetoclax] + C=CCn1c(=O)c2cnc(Nc3ccc(N4CCN(C)CC4)cc3)nc2n1-c1cccc(C(C)(C)O)n1 [AZD1775] (first compound max 1 µM, partner max 1 µM) | 0.927 | 0.377 | 0.977 | 0.501 | 0.744 | 0.0382 | 0.435 | 0.832 | 0.377 | 0.97 | 0.992 | 0.897 | 0.489 | 0.738 | 1 | 0.814 | 0.34 | 0.736 | 0.882 | 0.325
C=CCn1c(=O)c2cnc(Nc3ccc(N4CCN(C)CC4)cc3)nc2n1-c1cccc(C(C)(C)O)n1 [AZD1775] + C1CN(CCC1(C(=O)N[C@@H](CCO)C2=CC=C(C=C2)Cl)N)C3=NC=NC4=C3C=CN4 [Capivasertib] (first compound max 3 µM, partner max 3 µM) | 0.873 | 0.727 | 0.911 | 0.666 | 0.665 | 0.466 | 0.619 | 0.85 | 0.211 | 0.93 | 1 | 0.889 | 0.454 | 0.843 | 0.998 | 0.844 | 0.503 | 0.757 | 0.625 | 0.529
